Results published in article PMC6628293, “Rhamnose Binding Protein as an Anti-Bacterial Agent—Targeting Biofilm of Pseudomonas aeruginosa” (Marine Drugs, 2019).
pKi: −log10 of the molar value.

Target: T1, rHPLOE (recombinant hemolymph plasma lectin)
T1 construct: gene hpl; E. coli codon-optimised synthetic gene hplOE in pET-23a(+), BL21(DE3) with chaperones (pG-KJE8); His-tag kept; HisTrap purified
Test: competitive ELISA against coated PA14 biofilm extract
Parameters: species or system Tachypleus tridentatus
Conditions: 0.1 uM rHPLOE; 37 °C, 1 h; competitor of binding to cell-free P. aeruginosa PA14 biofilm; one-site Ki fit
Text: competitive ELISA against coated PA14 biofilm extract on rHPLOE (recombinant hemolymph plasma lectin) | The inhibitory constant (Ki) of L-rhamnose to rHPLOE interaction with the biofilm

## C[C@@H]1OC(O)[C@H](O)[C@H](O)[C@H]1O (stereo partly drawn) [L-rhamnose]
  pKi: 1.01
